Experimental data taken from US8598193B2, “Polycyclic agents for the treatment of respiratory syncytial virus infections” (Biota Scientific Management Pty Ltd., priority 2003, dated 2013).
Values after ≈ are worked out from the molar mass of the structure shown. Like-named read-outs stand apart in the source and are kept apart here.

Tests used:
RSV A2 [1] = experiment: RSV antiviral cytopathic effect (CPE) assay, MTT readout; format: cell-based; conditions: human respiratory syncytial virus, HEp-2, 120 h
Description: Method Q: RSV Antiviral Assay Protocol
Compounds of the invention were tested for their antiviral activity against respiratory syncytial virus. Cytopathic effect (CPE) assays were performed essentially as described in the literature (see for example Watanabe et al, 1. Virological Methods, 1994, 48, 257). Serial dilutions of the test compounds were made in assay medium. HEp2 cells (1.0×10^4 cells/well) were infected with RSV at a low multiplicity of infection (e.g. RSV A2 at an moi of 0.01) and 100 μL added to cultures assessing antiviral activity and cells without virus added to those assessing compound cytotoxicity. Assays were incubated for approximately 5 days at 37° C. in a 5% CO2 atmosphere. The extent of CPE was determined via metabolism of the vital dye 3-(4,5-dimethylthiaxol-2-yl)-2,5-diphenyltetrazolium bromide (MTT). A 3 mg/ml stock of MTT was made in assay medium and 100 μL added to each well, taking the final MTT concentration to […]. After 2 hours incubation at 37° C., the media-MTT solution was removed and 200 μL of isopropanol was added to dissolve the vital dye crystals. Plates were shaken and the absorbance read at 540 nm. The compound concentrations that inhibited CPE by 50% (EC50) and developed cytotoxicity (CC50) were calculated using an Excel curve fitting program.

[2] = biological target: T1, RSV A2 F glycoprotein (membrane-anchored full-length F) in 293 cells (Human respiratory syncytial virus A, UniProt P03420); experiment: RSV fusion assay (syncytium formation assay); format: cell-based
T1 construct: A membrane-anchored full-length F was generated essentially according to the method described therein; expressed in transfected cells; host or cells: 293 cells
T1 sequence (P03420 26-109): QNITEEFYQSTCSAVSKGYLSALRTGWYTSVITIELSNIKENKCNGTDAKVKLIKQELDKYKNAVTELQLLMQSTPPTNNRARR
T1 sequence (P03420 137-574): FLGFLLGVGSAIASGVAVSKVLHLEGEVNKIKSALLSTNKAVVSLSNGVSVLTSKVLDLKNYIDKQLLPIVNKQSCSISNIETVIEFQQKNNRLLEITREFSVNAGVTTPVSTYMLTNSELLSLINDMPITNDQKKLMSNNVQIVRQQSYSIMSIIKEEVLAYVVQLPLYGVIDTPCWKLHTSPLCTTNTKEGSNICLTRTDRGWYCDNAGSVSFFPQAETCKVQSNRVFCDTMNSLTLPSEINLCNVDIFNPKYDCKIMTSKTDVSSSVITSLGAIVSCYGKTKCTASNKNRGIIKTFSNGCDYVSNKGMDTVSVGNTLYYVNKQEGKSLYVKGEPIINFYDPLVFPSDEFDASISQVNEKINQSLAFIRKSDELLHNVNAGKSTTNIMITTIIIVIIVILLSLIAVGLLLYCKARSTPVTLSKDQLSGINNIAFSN
Description: Method R: RSV Fusion Assay
Selected compounds of the invention were tested for their ability to inhibit the essential fusion processes of the respiratory syncytial virus.
Single-stranded synthetic DNA oligonucleotides encoding the portions of RSV A2 F glycoprotein incorporating optimal codons and without potential poly(A) addition or splice sites were generated synthetically (Mason et al, WO0242326). A membrane-anchored full-length F was generated essentially according to the method described therein and in Morton et al, Virology, 2003, 311, 275.
Fusion activity of the RSV-F constructs was measured in 293 cells essentially according to the method described in Morton et al, Virology, 2003, 311, 275. For example: cells in six well plates at approximately 80% confluency were transfected by adding plasmid DNA (2 μg/well) carrying the constructs of interest in CaPO4 solution for 4 hours. After glycerol shock and wash, the transfected cells were trypsinized and 1.5×10^4 cells/well added to 96-well plates containing half-log serial dilutions of the test compound. Syncytium formation was evaluated by visual inspection and quantified at 48 hours post-transfection by addition of 20 μL of CellTiter 96 One Solution (Promega) followed by incubation for 4 hours at 37° C. The colour reaction was then stopped by addition of 25 μL 10% SDS to each well and absorbance measured at 492 nm. The compound concentration that reduced absorbance relative to untreated control cultures by 50% (EC50) was calculated using an Excel curve fitting program.

RSV A2 [3] = experiment: RSV cotton rat model; format: in vivo; conditions: oral 100 mg/kg/day, lung RSV titres by plaque assay four days after inoculation
Description: Method S: RSV Cotton Rat Model
The cotton rat model was performed essentially as described in the literature (Wyde et al, Antiviral Res. 2003, 60, 221). Briefly, cotton rats weighing 50-100 g were lightly anesthetized with isoflurane and dosed orally with 100 mg/kg/day of compound or vehicle control. Viral infection followed 2 hours post-treatment in similarly anesthetized rats by intranasal instillation with approximately 1000 TCID50 of RSV A2 per animal. Four days after virus inoculation, each cotton rat was sacrificed and their lungs removed and RSV titres determined by plaque assay.

RSV A2 [4] = experiment: RSV Balb/c mouse model; format: in vivo; conditions: female Balb/c mice, compound orally 6 hours preinfection, lung RSV titres by plaque assay three days after virus inoculation
Description: Method T: RSV Balb/c Mouse Model
The mouse model was performed essentially as described by Clanci et al (Antimicrobial Agents and Chemotherapy. 2004, 48, 413). Briefly, eight week old female Balb/c mice were weighed, anesthetized intraperitoneally with Avertin™ and compound or vehicle administered orally 6 hours preinfection. Mice were inoculated intranasally with approximately 10000 TCID50 RSV A2 per animal. Three days after virus inoculation, each mouse was sacrificed and their lungs removed and RSV titres determined by plaque assay.

[5] = RSV A2 in HEp2 cells, CPE assay, MTT, approx. 5 days, read-out: Activity Range (RSV A2 antiviral EC50), compounds of Table 2
[6] = RSV A2 in HEp2 cells, CPE assay, MTT, approx. 5 days, read-out: Activity Range (RSV A2 antiviral EC50), compounds of Table 3

EC50 (RSV A2 [1]; [5]) [µg/mL]	EC50 (RSV A2 [1]; [6]) [µg/mL]	Compound	further results
–	0.1 to 0.25 (≈ 0.236 to 0.59 µM)	O=C(c1ccc(F)cc1)N1CCN2C(=O)c3cc[n+]([O-])cc3C12c1ccc(Cl)cc1 (stereo not drawn) [Compound 352]	% Reduction of virus Control (RSV A2 [3]): 68%
–	–	CCC(=O)N1CCN2C(=O)c3ccccc3C12c1ccc(Cl)cc1 (stereo not drawn) [Compound 16]	EC50 [2]: 2.2 to 4.4 µM
< 0.1	–	O=C(c1ccc(F)nc1)N1CCN2C(=O)c3ccccc3C12c1ccc(Cl)cc1 (stereo not drawn) [Compound 306]	% Reduction of virus Control (RSV A2 [3]): 72%
–	–	O=C(c1ccc(F)cc1)N1CCN2C(=O)c3ccccc3C12c1ccc(Cl)cc1 (stereo not drawn) [Compound 12]	EC50 (RSV A2 [1]; read-out: Activity Range (RSV A2 antiviral EC50), compounds of Table 2): 0.1 to 0.25 µg/mL (≈ 0.246 to 0.614 µM); EC50 [2]: 3.69 to 5.53 µM
0.25 to 1 (≈ 0.629 to 2.52 µM)	–	Cc1ccc(C23c4ccccc4C(=O)N2CCN3C(=O)NCc2ccccc2)cc1 (stereo not drawn) [Compound 82]	–
–	< 0.1	O=C1c2ccncc2C2(c3ccc(Cl)cc3)N1CCN2C(=O)c1sccc1Br (stereo not drawn) [Compound 445]	–
–	0.25 to 1 (≈ 0.613 to 2.45 µM)	O=C(c1ccc(F)cc1)N1CCN2C(=O)c3ccncc3C12c1ccccc1Cl (stereo not drawn) [Compound 344]	–
0.25 to 1 (≈ 0.586 to 2.34 µM)	–	CCc1ccc(C23c4ccccc4C(=O)N2CCN3C(=O)Cc2ccc(OC)cc2)cc1 (stereo not drawn) [Compound 190]	–
0.1 to 0.25 (≈ 0.233 to 0.582 µM)	–	O=C1c2ccccc2C2(c3ccc(Cl)cc3)N1CCN2C(=O)c1sccc1Cl (stereo not drawn) [Compound 328]	–
–	< 0.1	O=C(c1ccc(F)nc1)N1CCN2C(=O)c3cc[n+]([O-])cc3C12c1ccc(Cl)cc1 (stereo not drawn) [Compound 480]	–
–	0.25 to 1 (≈ 0.548 to 2.19 µM)	O=C1c2ccncc2C2(c3ccc(Cl)cc3)N1CCN2C(=O)c1ccnn1-c1ccccc1 (stereo not drawn) [Compound 423]	–
–	0.25 to 1 (≈ 0.518 to 2.07 µM)	O=C1c2ccncc2C2(c3ccc(Cl)cc3)N1CCN2C(=O)c1cccnc1Oc1ccccc1 (stereo not drawn) [Compound 404]	–

Compound	EC50 (RSV A2 [1]; [5]) [µg/mL]	EC50 (RSV A2 [1]; [6]) [µg/mL]	further results
COc1ccc(CC(=O)N2CCN3C(=O)c4ccccc4C23c2ccc(C)cc2)cc1 (stereo not drawn) [Compound 66]	0.1 to 0.25 (≈ 0.242 to 0.606 µM)	–	EC50 [2]: 1.82 to 3.64 µM
O=C(c1ccc(F)cc1)N1CCN2C(=O)c3ccncc3C12c1ccc(Cl)cc1 (stereo not drawn) [Compound 336]	–	0.1 to 0.25 (≈ 0.245 to 0.613 µM)	EC50 [2]: < 1.84 µM; % Reduction of virus Control (RSV A2 [3]): 96%; % Reduction of virus Control (RSV A2 [4]): 80%
